In US20210101874A1, “MICROBIOCIDAL OXADIAZOLE DERIVATIVES” (SYNGENTA PARTICIPATIONS AG, priority 2017, published 2021):

Key:
[1] = test system: Puccinia recondita f. sp. Tritici; experiment: Puccinia recondita f. sp. tritici / wheat / leaf disc preventative (brown rust); format: in vivo; settings: foliar, 200 ppm in the applied formulation, wheat leaf segments cv. Kanzler, inoculated 1 day after application, compared to untreated, assessed 7 to 9 days after application, read-out: disease control
Procedure, shortened: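 Wheat cv. Kanzler leaf segments on agar sprayed with diluted compound, inoculated with brown rust spores 1 day later. Kept at 19° C., 75% rh, 12 h light/dark; percent disease control versus untreated segments scored 7 to 9 days after application, compounds tested at 200 ppm.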

[2] = test system: Glomerella lagenarium (Colletotrichum lagenarium); experiment: Glomerella lagenarium (Colletotrichum lagenarium) liquid culture / cucumber / preventative (anthracnose); format: cell-based; settings: Colletotrichum orbiculare; 20 ppm in the applied formulation; conidia in PDB nutrient broth, 24° C.; 3 to 4 days after application; compared to untreated; read-out: disease control (inhibition of growth measured photometrically)
Procedure, shortened: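 Test compound, diluted from DMSO, was mixed in microtiter wells with fungal conidia taken from cryogenic storage and suspended in PDB nutrient broth. After 3 to 4 days at 24 °C, photometric growth measurement gave antifungal activity as a percentage of the untreated control.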

[3] = test system: Puccinia recondita f. sp. Tritici; experiment: Puccinia recondita f. sp. tritici / wheat / leaf disc curative (brown rust); format: in vivo; settings: foliar, 200 ppm in the applied formulation, wheat leaf segments cv. Kanzler, applied 1 day after inoculation, compared to untreated, assessed 6 to 8 days after application, read-out: disease control
Method: Leaf disks or leaf segments of various plant species are cut from plants grown in a greenhouse. The cut leaf disks or segments are placed in multiwell plates (24-well format) onto water agar. The leaf disks are sprayed with a test solution before (preventative) or after (curative) inoculation. Compounds to be tested are prepared as DMSO solutions (max. 10 mg/ml) which are diluted to the appropriate concentration with 0.025% Tween20 just before spraying. The inoculated leaf disks or segments are incubated under defined conditions (temperature, relative humidity, light, etc.) according to the respective test system. A single evaluation of disease level is carried out 3 to 14 days after inoculation, depending on the pathosystem. Percent disease control relative to the untreated check leaf disks or segments is then calculated.
Wheat leaf segments cv. Kanzler are placed on agar in multiwell plates (24-well format). The leaf segments are then inoculated with a spore suspension of the fungus. Plates were stored in darkness at 19° C. and 75% relative humidity. The formulated test compound diluted in water was applied 1 day after inoculation. The leaf segments were incubated at 19° C. and 75% relative humidity under a light regime of 12 hours light/12 hours darkness in a climate cabinet and the activity of a compound was assessed as percent disease control compared to untreated when an appropriate level of disease damage appears in untreated check leaf segments (6 to 8 days after application).
The following compounds at 200 ppm in the applied formulation give at least 80% disease control in this test when compared to untreated control leaf disks under the same conditions, which show extensive disease development.

CC(C)N(Cc1ccc(-c2noc(C(F)(F)F)n2)cc1)S(C)(=O)=O [Compound 1.86, N-isopropyl-N-[[4-[5-(trifluoromethyl)-1,2,4-oxadiazol-3-yl]phenyl]methyl] methanesulfonamide]
≥ 80%: pest or weed control at 200 ppm [1] | inhibition at 20 ppm [2] | pest or weed control at 200 ppm [3]

COC(=O)CCS(=O)(=O)NCc1ccc(-c2noc(C(F)(F)F)n2)cc1 [Compound 2.8, methyl 3-[[4-[5-(trifluoromethyl)-1,2,4-oxadiazol-3-yl]phenyl]methyl-sulfamoyl] propanoate]
≥ 80%: pest or weed control at 200 ppm [1] | inhibition at 20 ppm [2] | pest or weed control at 200 ppm [3]

CCN(Cc1ccc(-c2noc(C(F)(F)F)n2)cc1F)S(=O)(=O)N(C)C [Compound 1.105, N-(dimethylsulfamoyl)-N-[[2-fluoro-4-[5-(trifluoromethyl)-1,2,4-oxadiazol-3-yl]phenyl]methyl] ethanamine]
≥ 80%: pest or weed control at 200 ppm [1] | inhibition at 20 ppm [2] | pest or weed control at 200 ppm [3]

CNS(=O)(=O)NCc1ccc(-c2noc(C(F)(F)F)n2)cc1 [Compound 2.14, N-(methylsulfamoyl)-1-[4-[5-(trifluoromethyl)-1,2,4-oxadiazol-3-yl]phenyl] methanamine]
≥ 80%: pest or weed control at 200 ppm [1] | inhibition at 20 ppm [2] | pest or weed control at 200 ppm [3]

COCCS(=O)(=O)NCc1ccc(-c2noc(C(F)(F)F)n2)cc1F [Compound 2.34, N-[[2-fluoro-4-[5-(trifluoromethyl)-1,2,4-oxadiazol-3-yl]phenyl]methyl]-2-methoxy-ethanesulfon-amide]
≥ 80%: pest or weed control at 200 ppm [1] | inhibition at 20 ppm [2] | pest or weed control at 200 ppm [3]

CCCS(=O)(=O)NCc1ccc(-c2noc(C(F)(F)F)n2)cc1 [Compound 2.4, N-[[4-[5-(trifluoromethyl)-1,2,4-oxadiazol-3-yl]phenyl]methyl] propane-1-sulfonamide]
≥ 80%: pest or weed control at 200 ppm [1] | inhibition at 20 ppm [2] | pest or weed control at 200 ppm [3]

C/C=C/S(=O)(=O)N(C)Cc1ccc(-c2noc(C(F)(F)F)n2)cc1 [Compound 1.51, (E)-N-methyl-N-[[4-(5-(trifluoromethyl)-1,2,4-oxadiazol-3-yl]phenyl]methyl] prop-1-ene-1-sulfonamide]
≥ 80%: pest or weed control at 200 ppm [1] | inhibition at 20 ppm [2] | pest or weed control at 200 ppm [3]

O=S(=O)(NCc1ccc(-c2noc(C(F)(F)F)n2)cc1F)N1CCCC1 [Compound 3.27, N-[[2-fluoro-4-[5-(trifluoromethyl)-1,2,4-oxadiazol-3-yl]phenyl]methyl] pyrrolidine-1-sulfonamide]
≥ 80%: pest or weed control at 200 ppm [1] | inhibition at 20 ppm [2] | pest or weed control at 200 ppm [3]

COCCS(=O)(=O)N(Cc1ccc(-c2noc(C(F)(F)F)n2)cc1)C(C)C [Compound 1.83, N-isopropyl-2-methoxy-N-[[4-[5-(trifluoromethyl)-1,2,4-oxadiazol-3-yl]phenyl]methyl] ethanesulfonamide]
≥ 80%: pest or weed control at 200 ppm [1] | inhibition at 20 ppm [2] | pest or weed control at 200 ppm [3]

C/C=C/S(=O)(=O)NCc1ccc(-c2noc(C(F)(F)F)n2)cc1F [Compound 2.36, (E)-N-[[2-fluoro-4-[5-(trifluoromethyl)-1,2,4-oxadiazol-3-yl]phenyl]methyl] prop-1-ene-1-sulfonamide]
≥ 80%: pest or weed control at 200 ppm [1] | inhibition at 20 ppm [2] | pest or weed control at 200 ppm [3]

CNS(=O)(=O)N(Cc1ccc(-c2noc(C(F)(F)F)n2)cc1)C(C)C [Compound 1.87, 3-[4-[[isopropyl (methylsulfamoyl)amino]methyl]phenyl]-5-(trifluoromethyl)-1,2,4-oxadiazole]
≥ 80%: pest or weed control at 200 ppm [1] | inhibition at 20 ppm [2] | pest or weed control at 200 ppm [3]

CCN(Cc1ccc(-c2noc(C(F)(F)F)n2)cc1)S(=O)(=O)CC1CCOC1 (stereo not drawn) [Compound 1.35, N-ethyl-1-tetrahydrofuran-3-yl-N-[[4-[5-(trifluoromethyl)-1,2,4-oxadiazol-3-yl]phenyl]methyl] methanesulfonamide]
≥ 80%: pest or weed control at 200 ppm [1] | inhibition at 20 ppm [2] | pest or weed control at 200 ppm [3]

C=CCS(=O)(=O)N(CC)Cc1ccc(-c2noc(C(F)(F)F)n2)cc1 [Compound 1.34, N-ethyl-N-[[4-[5-(trifluoromethyl)-1,2,4-oxadiazol-3-yl]phenyl]methyl] prop-2-ene-1-sulfonamide]
≥ 80%: pest or weed control at 200 ppm [1] | inhibition at 20 ppm [2] | pest or weed control at 200 ppm [3]

CC(C)N(Cc1ccc(-c2noc(C(F)(F)F)n2)cc1)S(=O)(=O)C1CC1 [Compound 1.98, N-isopropyl-N-[[4-[5-(trifluoromethyl)-1,2,4-oxadiazol-3-yl]phenyl]methyl] cyclopropanesulfonamide]
≥ 80%: pest or weed control at 200 ppm [1] | inhibition at 20 ppm [2] | pest or weed control at 200 ppm [3]

C/C=C/S(=O)(=O)NCc1ccc(-c2noc(C(F)(F)F)n2)c(F)c1 [Compound 2.19, (E)-N-[[3-fluoro-4-[5-(trifluoromethyl)-1,2,4-oxadiazol-3-yl]phenyl]methyl] prop-1-ene-1-sulfonamide]
≥ 80%: pest or weed control at 200 ppm [1] | inhibition at 20 ppm [2] | pest or weed control at 200 ppm [3]

Cn1ccc(S(=O)(=O)NCc2ccc(-c3noc(C(F)(F)F)n3)cc2)n1 [Compound 3.10, 1-methyl-N-[[4-[5-(trifluoromethyl)-1,2,4-oxadiazol-3-yl]phenyl]methyl] pyrazole-3-sulfonamide]
≥ 80%: pest or weed control at 200 ppm [1] | inhibition at 20 ppm [2] | pest or weed control at 200 ppm [3]

CN(C)S(=O)(=O)NCc1ccc(-c2noc(C(F)(F)F)n2)c(F)c1 [Compound 2.30, 3-[4-[(dimethyl-sulfamoylamino)methyl]-2-fluoro-phenyl]-5-(trifluoromethyl)-1,2,4-oxadiazole]
≥ 80%: pest or weed control at 200 ppm [1] | inhibition at 20 ppm [2] | pest or weed control at 200 ppm [3]

CCN(Cc1ccc(-c2noc(C(F)(F)F)n2)cc1)S(=O)(=O)CC [Compound 1.61, N-ethyl-N-[[4-[5-(trifluoromethyl)-1,2,4-oxadiazol-3-yl]phenyl]methyl] ethanesulfonamide]
≥ 80%: pest or weed control at 200 ppm [1] | inhibition at 20 ppm [2] | pest or weed control at 200 ppm [3]

C=CCS(=O)(=O)NCc1ccc(-c2noc(C(F)(F)F)n2)cc1F [Compound 2.32, N-[[2-fluoro-4-[5-(trifluoromethyl)-1,2,4-oxadiazol-3-yl]phenyl]methyl] prop-2-ene-1-sulfonamide]
≥ 80%: pest or weed control at 200 ppm [1] | inhibition at 20 ppm [2] | pest or weed control at 200 ppm [3]

COCCS(=O)(=O)NCc1ccc(-c2noc(C(F)(F)F)n2)c(F)c1 [Compound 2.17, N-[[3-fluoro-4-[5-(trifluoromethyl)-1,2,4-oxadiazol-3-yl]phenyl]methyl]-2-methoxy-ethanesulfon-amide]
≥ 80%: pest or weed control at 200 ppm [1] | inhibition at 20 ppm [2] | pest or weed control at 200 ppm [3]

CCCN(Cc1ccc(-c2noc(C(F)(F)F)n2)cc1)S(=O)(=O)C1CC1 [Compound 1.69, N-propyl-N-[[4-[5-(trifluoromethyl)-1,2,4-oxadiazol-3-yl]phenyl]methyl] cyclopropanesulfonamide]
≥ 80%: pest or weed control at 200 ppm [1] | inhibition at 20 ppm [2] | pest or weed control at 200 ppm [3]

CN(Cc1ccc(-c2noc(C(F)(F)F)n2)cc1)S(=O)(=O)CC1CCOC1 (stereo not drawn) [Compound 1.47, N-methyl-1-tetrahydrofuran-3-yl-N-[[4-[5-(trifluoromethyl)-1,2,4-oxadiazol-3-yl]phenyl]methyl] methanesulfonamide]
≥ 80%: pest or weed control at 200 ppm [1] | inhibition at 20 ppm [2] | pest or weed control at 200 ppm [3]

CCN(Cc1ccc(-c2noc(C(F)(F)F)n2)cc1)S(=O)(=O)CCOC [Compound 1.37, N-ethyl-2-methoxy-N-[[4-[5-(trifluoromethyl)-1,2,4-oxadiazol-3-yl]phenyl]methyl] ethanesulfonamide]
≥ 80%: pest or weed control at 200 ppm [1] | inhibition at 20 ppm [2] | pest or weed control at 200 ppm [3]

C/C=C/S(=O)(=O)N(Cc1ccc(-c2noc(C(F)(F)F)n2)cc1)C(C)C [Compound 1.84, (E)-N-isopropyl-N-[[4-[5-(trifluoromethyl)-1,2,4-oxadiazol-3-yl]phenyl]methyl] prop-1-ene-1-sulfonamide]
≥ 80%: pest or weed control at 200 ppm [1] | inhibition at 20 ppm [2] | pest or weed control at 200 ppm [3]
